Test results from paper PMC3561686 (Basic & Clinical Pharmacology & Toxicology, 2012).
Where two headings read alike, the source gives them in different places.

What was measured:
[1] = read-out: expected Cmax; after a 100 mg dose; cited from earlier work
human liver microsomes = settings: cited from earlier work
CYP3A = settings: cited from earlier work
CYP2C9 = CYP2C9 (Homo sapiens, UniProt P11712); settings: mean ratio
[2] = for AUC ratio (prasugrel + ritonavir versus prasugrel alone): AUC0–6 hr; for AUC ratio (prasugrel + ritonavir versus prasugrel alone) / Cmax ratio (prasugrel + ritonavir versus prasugrel alone): mean ratio; for Cmax: human, in vivo, prasugrel alone session, dried blood spots, mean (S.D.)
CYP2C19 = CYP2C19 (Homo sapiens, UniProt P33261); assay: CYP2C19 phenotyping: omeprazole metabolic ratio in plasma; type: in vivo; settings: mean ratio
Chain of CYP2C19 (P33261 whole entry): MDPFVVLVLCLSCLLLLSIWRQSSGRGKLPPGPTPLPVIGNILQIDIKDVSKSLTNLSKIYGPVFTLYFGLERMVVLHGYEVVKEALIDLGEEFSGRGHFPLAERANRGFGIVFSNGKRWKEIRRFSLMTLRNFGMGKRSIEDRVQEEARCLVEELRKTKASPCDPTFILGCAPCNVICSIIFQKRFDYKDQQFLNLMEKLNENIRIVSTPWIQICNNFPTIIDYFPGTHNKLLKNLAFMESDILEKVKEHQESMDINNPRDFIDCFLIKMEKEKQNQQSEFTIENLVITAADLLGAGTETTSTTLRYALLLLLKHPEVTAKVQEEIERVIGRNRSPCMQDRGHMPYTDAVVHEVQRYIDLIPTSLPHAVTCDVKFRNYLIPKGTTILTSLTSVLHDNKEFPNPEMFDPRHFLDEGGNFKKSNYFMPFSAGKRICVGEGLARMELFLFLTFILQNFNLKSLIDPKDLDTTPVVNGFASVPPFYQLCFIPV

Chain of CYP2C9 (P11712 whole entry): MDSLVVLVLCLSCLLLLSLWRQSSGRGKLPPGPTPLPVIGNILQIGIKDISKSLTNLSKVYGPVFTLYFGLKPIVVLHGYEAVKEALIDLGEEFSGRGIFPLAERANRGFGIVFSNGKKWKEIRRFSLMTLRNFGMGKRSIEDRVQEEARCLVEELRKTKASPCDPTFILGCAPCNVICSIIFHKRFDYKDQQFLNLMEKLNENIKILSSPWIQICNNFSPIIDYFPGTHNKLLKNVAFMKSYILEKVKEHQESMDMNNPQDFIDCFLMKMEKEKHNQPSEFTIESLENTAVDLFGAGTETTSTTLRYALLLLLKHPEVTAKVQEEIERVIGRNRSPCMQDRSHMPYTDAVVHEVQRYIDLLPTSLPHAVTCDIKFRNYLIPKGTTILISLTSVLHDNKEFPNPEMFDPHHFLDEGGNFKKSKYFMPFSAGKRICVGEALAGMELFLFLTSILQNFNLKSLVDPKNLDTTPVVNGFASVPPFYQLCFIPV

CC(C)c1nc(CN(C)C(=O)N[C@H](C(=O)N[C@@H](Cc2ccccc2)C[C@H](O)[C@H](Cc2ccccc2)NC(=O)OCc2cncs2)C(C)C)cs1 [ritonavir]
Cmax [1]: 1000 to 2000 nM
Inhibition of prasugrel bioactivation (human liver microsomes): potent inhibitor

CC(=O)N1CCN(c2ccc(OCC3COC(Cn4ccnc4)(c4ccc(Cl)cc4Cl)O3)cc2)CC1 (centres unmarked) [ketoconazole]
Change in prasugrel AM formation or the inhibition of platelet aggregation when prasugrel was administered with the drug (CYP3A): no change

CC(C(=O)O)c1ccc(-c2ccccc2)c(F)c1 (centres unmarked) [Flurbiprofen, flurbiprofen]
Metabolic Ratio (OH flurbiprofen/flurbiprofen), ratio prasugrel + ritonavir versus prasugrel alone (CYP2C9): not affected
AUC ratio (prasugrel + ritonavir versus prasugrel alone) [2]: 0.95
Cmax [2]: 1140 ng/mL
Cmax ratio (prasugrel + ritonavir versus prasugrel alone) [2]: 0.98

CC(NC(C)(C)C)C(=O)c1cccc(Cl)c1 (centres unmarked) [Bupropion, bupropion]
Cmax [2]: 20.9 ng/mL

COc1ccc2[nH]c([S+]([O-])Cc3ncc(C)c(OC)c3C)nc2c1 (centres unmarked) [Omeprazole, omeprazole]
Metabolic Ratio (OH omeprazole/omeprazole), ratio prasugrel + ritonavir versus prasugrel alone (CYP2C19): not affected
AUC ratio (prasugrel + ritonavir versus prasugrel alone) [2]: 1.25
Cmax [2]: 35.6 ng/mL
Cmax ratio (prasugrel + ritonavir versus prasugrel alone) [2]: 1.54

Cc1ncc2n1-c1ccc(Cl)cc1C(c1ccccc1F)=NC2 [Midazolam, midazolam]
AUC ratio (prasugrel + ritonavir versus prasugrel alone) [2]: 26.5
AUC ratio (prasugrel + ritonavir versus prasugrel alone) ([2]; listed as midazolam): 26
Cmax [2]: 0.17 ng/mL
Cmax ratio (prasugrel + ritonavir versus prasugrel alone) [2]: 6.1
Cmax ratio (prasugrel + ritonavir versus prasugrel alone) ([2]; listed as midazolam): 6
